These results are taken from PMC9610465, “The Inhibition of α-Glucosidase, α-Amylase and Protein Glycation by Phenolic Extracts of Cotoneaster bullatus, Cotoneaster zabelii, and Cotoneaster integerrimus Leaves and Fruits: Focus on Anti-Hyperglycemic Activity and Kinetic Parameters” (Molecules, 2022).

Structures are written as SMILES. ≈ marks a conversion by molar mass, not a printed value. A value given as a limit tells only on which side of the number the result lay.

One data set has as its system α-glucosidase. As to conditions: cited from earlier work.
Data set [1] concerns bovine serum albumin (BSA). Nature of the data set: Protein glycation inhibitory assay (BSA–fructose model). In kind it is biochemical. The method, then: The ability of the plant extracts/compounds to inhibit fructose-induced protein glycation was determined according to a method previously published with minor modifications. […] Briefly, fructose solution (600 µL) was mixed with BSA (600 µL) and 600 µL tested extracts/compounds at different concentrations and then the reaction mixture was incubated in the capped amber vials in the dark at 37 °C for six days.

The test system of another data set is α-amylase. The note with it: earlier studies; cited from earlier work.
The target of data set [2] is T1, Porcine pancreatic α-amylase (Sus scrofa, UniProt P00690).
T1 construct: purchased Sigma-Aldrich
T1 sequence (P00690 16-511): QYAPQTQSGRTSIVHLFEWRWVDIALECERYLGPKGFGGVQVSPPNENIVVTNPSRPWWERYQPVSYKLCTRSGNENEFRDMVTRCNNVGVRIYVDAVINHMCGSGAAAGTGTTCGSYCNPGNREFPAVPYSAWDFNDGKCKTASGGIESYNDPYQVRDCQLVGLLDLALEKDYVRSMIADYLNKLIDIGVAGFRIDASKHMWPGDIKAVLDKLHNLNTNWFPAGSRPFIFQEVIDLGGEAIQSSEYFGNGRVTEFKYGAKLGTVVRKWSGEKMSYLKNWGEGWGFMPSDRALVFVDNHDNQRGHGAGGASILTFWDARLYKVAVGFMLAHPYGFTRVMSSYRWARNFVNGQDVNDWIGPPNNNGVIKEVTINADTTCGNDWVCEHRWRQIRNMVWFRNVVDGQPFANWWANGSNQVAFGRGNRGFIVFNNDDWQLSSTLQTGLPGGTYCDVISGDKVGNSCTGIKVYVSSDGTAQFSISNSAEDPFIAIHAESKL
Briefly: α-Amylase inhibitory assay (potato starch, DNS). In kind it is biochemical. The note with it: mean ± SD (n = 3).

Where [3] appears, read: BSA–fructose model, 37 °C, six days, mean ± SD (n = 3).

Consider `Oc1cc(O)c2c(c1)O[C@H](c1ccc(O)c(O)c1)[C@@H](O)C2` [(+)-catechin], for which, in the data set on α-glucosidase, the “type of α-glucosidase inhibition” value was “mixed-type inhibitors”.

Consider `N=C(N)NN` [AG, aminoguanidine], for which the “IC50 Protein Glycation” value in data set [1] (setting [3]) is reported as 71.09 ± 4.20 ^D µg/mL; in data set [1] (BSA–fructose model, 37 °C, six days, mean ± SD (n = 3), listed as aminoguanidine), 71.1 µg/mL (≈ 960 µM).

As for `C[C@H]1O[C@H](O[C@H]2[C@H](O)[C@@H](O)[C@@H](O[C@H]3[C@H](O)[C@@H](O)C(O)O[C@@H]3CO)O[C@@H]2CO)[C@H](O)[C@@H](O)[C@@H]1N[C@H]1C=C(CO)[C@@H](O)[C@H](O)[C@H]1O` (stereo partly shown) [AR, acarbose], in the data set with α-glucosidase, the “type of α-glucosidase inhibition” value was “competitively interacts”. For the same molecule, the “type of α-amylase inhibition” value in the data set with α-amylase was “mixed type”.

With `Oc1cc(O)c2c(c1)O[C@H](c1ccc(O)c(O)c1)[C@@H](O)[C@@H]2c1c(O)cc(O)c2c1O[C@H](c1ccc(O)c(O)c1)[C@@H](O)C2` [B3], the “type of interaction with α-glucosidase” value with α-glucosidase is reported as “noncompetitive interaction”.

Broadly, the IC50 is the concentration that gives 50% inhibition. With `O=C(O)CC(OC(=O)/C=C/c1ccc(O)c(O)c1)C(=O)O` (stereo not shown) [CAD, caffeoylmalic acid], the half-inhibitory concentration (IC50) in data set [2] is more than 1350 µM. For the same molecule, the “IC50 Protein Glycation” value in data set [1] (bovine, 6 days, pH 7.4) is 17.26 ± 1.09 ^B µg/mL.

As for `Oc1cc(O)c2c(c1)O[C@H](c1ccc(O)c(O)c1)[C@H](O)C2` [ECA, (–)-epicatechin], the concentration for half-maximal inhibition (IC50) in data set [2] is more than 689 µM. Moreover, the “IC50 Protein Glycation” value in data set [1] (setting [3]) is 8.79 ± 0.13 ^A, B µg/mL. In addition, the “type of α-glucosidase inhibition” value in the data set with α-glucosidase is listed as “mixed-type inhibitors”.

Regarding `O=c1c(O[C@@H]2O[C@H](CO)[C@H](O)[C@H](O)[C@H]2O)c(-c2ccc(O)c(O)c2)oc2cc(O)cc(O)c12` [HP, hyperoside], the half-maximal inhibitory concentration (IC50) in data set [2] was more than 861 µM. For the same molecule, the “IC50 Protein Glycation” value in data set [1] (setting [3]) is reported as 14.34 ± 1.15 ^A, B µg/mL.

As to `Oc1cc(O)c2c(c1)O[C@H](c1ccc(O)c(O)c1)[C@H](O)[C@H]2c1c(O)cc(O)c2c1O[C@H](c1ccc(O)c(O)c1)[C@H](O)C2` [PB2, procyanidin B2], the IC50 in data set [2] was more than 346 µM. The “IC50 Protein Glycation” value in data set [1] (bovine, 6 days, pH 7.4) is 2.20 ± 0.01 ^A µg/mL. Also, the “type of interaction with α-glucosidase” value in the data set with α-glucosidase is given as “noncompetitive interaction”.

For `O=c1c(O[C@@H]2O[C@H](CO)[C@H](O)[C@H](O)[C@H]2O[C@@H]2OC[C@@H](O)[C@H](O)[C@H]2O)c(-c2ccc(O)c(O)c2)oc2cc(O)cc(O)c12` [QPH, quercetin 3-O-β-D-(2″-O-β-D-xylopyranosyl)galactopyranoside], the “IC50 α-Amylase” value in data set [2] is more than 400 µg/mL. Besides, in data set [1] (setting [3]), the “IC50 Protein Glycation” value is given as 15.78 ± 1.14 ^A, B µg/mL.

As for `C[C@@H]1O[C@@H](OC[C@H]2O[C@@H](Oc3c(-c4ccc(O)c(O)c4)oc4cc(O)cc(O)c4c3=O)[C@H](O)[C@@H](O)[C@@H]2O)[C@H](O)[C@H](O)[C@H]1O` [rutin], the “type of α-glucosidase inhibition” value in the data set on α-glucosidase was “mixed type”.
